Reference: PubChem BioAssay (NCI)
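Grown in 96-well plates, cells were treated for 48 hours with each compound at five concentrations. Insufficient inhibition: endpoint recorded as highest concentration tested. TGI: total growth inhibition.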

Experiments:
Assay in all cases: NCI tumour cell line growth inhibition, 48 h
MDA-N = system: MDA-N
OVCAR-4 ovarian = system: OVCAR-4 ovarian
SK-MEL-28 melanoma = system: SK-MEL-28 melanoma
OVCAR-8 ovarian = system: OVCAR-8 ovarian
UO-31 renal = system: UO-31 renal
SF-295 CNS = system: SF-295 CNS
M14 melanoma = system: M14 melanoma
786-0 renal = system: 786-0 renal
SNB-19 CNS = system: SNB-19 CNS
PC-3 prostate = system: PC-3 prostate
KM12 colon = system: KM12 colon
NCI/ADR-RES ovarian = system: NCI/ADR-RES ovarian
MOLT-4 leukemia = system: MOLT-4 leukemia
SK-MEL-2 melanoma = system: SK-MEL-2 melanoma
NCI-H460 lung = system: NCI-H460 lung
SN12C renal = system: SN12C renal
TK-10 renal = system: TK-10 renal
MDA-MB-435 = system: MDA-MB-435
RXF 393 renal = system: RXF 393 renal
SNB-75 CNS = system: SNB-75 CNS
SK-MEL-5 melanoma = system: SK-MEL-5 melanoma
K-562 leukemia = system: K-562 leukemia
BT-549 breast = system: BT-549 breast
LOX IMVI melanoma = system: LOX IMVI melanoma
MDA-MB-231 breast = system: MDA-MB-231 breast
HOP-62 NSCLC = system: HOP-62 NSCLC
HOP-92 NSCLC = system: HOP-92 NSCLC
UACC-62 melanoma = system: UACC-62 melanoma
HS 578T breast = system: HS 578T breast
NCI-H226 lung = system: NCI-H226 lung
A549 NSCLC = system: A549 NSCLC
MALME-3M melanoma = system: MALME-3M melanoma
SF-539 CNS = system: SF-539 CNS
SR leukemia = system: SR leukemia
HCT-116 colon = system: HCT-116 colon
HT29 colon = system: HT29 colon
SK-OV-3 ovarian = system: SK-OV-3 ovarian
OVCAR-3 ovarian = system: OVCAR-3 ovarian
COLO 205 colon = system: COLO 205 colon
HCC-2998 colon = system: HCC-2998 colon
IGROV1 ovarian = system: IGROV1 ovarian
HL-60(TB) leukemia = system: HL-60(TB) leukemia
UACC-257 melanoma = system: UACC-257 melanoma
ACHN renal = system: ACHN renal
EKVX NSCLC = system: EKVX NSCLC
MCF7 breast = system: MCF7 breast
U251 CNS = system: U251 CNS
HCT-15 colon = system: HCT-15 colon
A498 renal = system: A498 renal
CCRF-CEM leukemia = system: CCRF-CEM leukemia
OVCAR-5 ovarian = system: OVCAR-5 ovarian
SW-620 colon = system: SW-620 colon
NCI-H23 lung = system: NCI-H23 lung
CAKI-1 renal = system: CAKI-1 renal
DU-145 prostate = system: DU-145 prostate
RPMI-8226 leukemia = system: RPMI-8226 leukemia
SF-268 CNS = system: SF-268 CNS

NC(=S)N=Nc1c(O)[nH]c2c(Cl)cc(Cl)cc12
TGI (MDA-N): 35.1 µM
TGI (OVCAR-4 ovarian): > 100 µM
TGI (SK-MEL-28 melanoma): 29.6 µM
TGI (OVCAR-8 ovarian): 40.8 µM
TGI (UO-31 renal): > 100 µM
TGI (SF-295 CNS): 46.6 µM
TGI (M14 melanoma): 32.3 µM
TGI (786-0 renal): 92.9 µM
TGI (SNB-19 CNS): > 100 µM
TGI (PC-3 prostate): 81.1 µM
TGI (KM12 colon): 42.2 µM
TGI (NCI/ADR-RES ovarian): 38.7 µM
TGI (MOLT-4 leukemia): 67.8 µM
TGI (SK-MEL-2 melanoma): 34.8 µM
TGI (NCI-H460 lung): > 100 µM
TGI (SN12C renal): 52.8 µM
TGI (TK-10 renal): > 100 µM
TGI (MDA-MB-435): 34 µM
TGI (RXF 393 renal): 33.7 µM
TGI (SNB-75 CNS): 42.4 µM
TGI (SK-MEL-5 melanoma): 28.2 µM
TGI (K-562 leukemia): > 100 µM
TGI (BT-549 breast): 50.4 µM
TGI (LOX IMVI melanoma): 48 µM
TGI (MDA-MB-231 breast): 50.2 µM
TGI (HOP-62 NSCLC): 49.4 µM
TGI (HOP-92 NSCLC): > 100 µM
TGI (UACC-62 melanoma): 34.1 µM
TGI (HS 578T breast): 72.5 µM
TGI (NCI-H226 lung): 30.3 µM
TGI (A549 NSCLC): > 100 µM
TGI (MALME-3M melanoma): 35.2 µM
TGI (SF-539 CNS): 34.6 µM
TGI (SR leukemia): 70.4 µM
TGI (HCT-116 colon): 40.5 µM
TGI (HT29 colon): 42 µM
TGI (SK-OV-3 ovarian): > 100 µM
TGI (OVCAR-3 ovarian): 34.8 µM
TGI (COLO 205 colon): 41.8 µM
TGI (HCC-2998 colon): > 100 µM
TGI (IGROV1 ovarian): > 100 µM
TGI (HL-60(TB) leukemia): 49.6 µM
TGI (UACC-257 melanoma): 86.2 µM
TGI (ACHN renal): > 100 µM
TGI (EKVX NSCLC): > 100 µM
TGI (MCF7 breast): > 100 µM
TGI (U251 CNS): 40.9 µM
TGI (HCT-15 colon): > 100 µM
TGI (A498 renal): > 100 µM
TGI (CCRF-CEM leukemia): > 100 µM
TGI (OVCAR-5 ovarian): > 100 µM
TGI (SW-620 colon): > 100 µM
TGI (NCI-H23 lung): > 100 µM
TGI (CAKI-1 renal): > 100 µM

c1ccc2cc3c(cc2c1)Nc1c2ccccc2nc2cccc-3c12
TGI (MDA-N): 2.83 µM
TGI (SK-MEL-28 melanoma): 3.12 µM
TGI (UO-31 renal): 3 µM
TGI (SF-295 CNS): 2.96 µM
TGI (DU-145 prostate): 3.1 µM
TGI (M14 melanoma): 3.76 µM
TGI (PC-3 prostate): 2.87 µM
TGI (NCI/ADR-RES ovarian): 4.69 µM
TGI (SK-MEL-2 melanoma): 2.84 µM
TGI (NCI-H460 lung): 3.26 µM
TGI (SN12C renal): 3.08 µM
TGI (TK-10 renal): 3.28 µM
TGI (MDA-MB-435): 3.43 µM
TGI (SK-MEL-5 melanoma): 3.11 µM
TGI (K-562 leukemia): > 100 µM
TGI (BT-549 breast): 38.4 µM
TGI (LOX IMVI melanoma): 2.93 µM
TGI (MDA-MB-231 breast): 2.45 µM
TGI (HOP-92 NSCLC): 2.86 µM
TGI (UACC-62 melanoma): 3.57 µM
TGI (NCI-H226 lung): 5.03 µM
TGI (A549 NSCLC): 3.3 µM
TGI (MALME-3M melanoma): 3.07 µM
TGI (HT29 colon): 3.2 µM
TGI (SK-OV-3 ovarian): 3.01 µM
TGI (COLO 205 colon): 3.02 µM
TGI (HCC-2998 colon): 3.1 µM
TGI (IGROV1 ovarian): 2.75 µM
TGI (UACC-257 melanoma): 2.92 µM
TGI (ACHN renal): 2.88 µM
TGI (A498 renal): 6.8 µM
TGI (OVCAR-5 ovarian): 3.22 µM
TGI (SW-620 colon): 2.91 µM
TGI (NCI-H23 lung): 2.61 µM
TGI (CAKI-1 renal): 3.05 µM

COc1cc2oc(=O)cc(C)c2c(OC)c1O
TGI (MDA-N): > 100 µM
TGI (OVCAR-4 ovarian): > 100 µM
TGI (SK-MEL-28 melanoma): > 100 µM
TGI (OVCAR-8 ovarian): > 100 µM
TGI (UO-31 renal): > 100 µM
TGI (SF-295 CNS): > 100 µM
TGI (DU-145 prostate): > 100 µM
TGI (M14 melanoma): > 100 µM
TGI (786-0 renal): > 100 µM
TGI (SNB-19 CNS): > 100 µM
TGI (PC-3 prostate): > 100 µM
TGI (KM12 colon): > 100 µM
TGI (NCI/ADR-RES ovarian): > 100 µM
TGI (MOLT-4 leukemia): > 100 µM
TGI (SK-MEL-2 melanoma): > 100 µM
TGI (SN12C renal): > 100 µM
TGI (TK-10 renal): > 100 µM
TGI (MDA-MB-435): > 100 µM
TGI (SNB-75 CNS): > 100 µM
TGI (SK-MEL-5 melanoma): > 100 µM
TGI (K-562 leukemia): > 100 µM
TGI (LOX IMVI melanoma): > 100 µM
TGI (MDA-MB-231 breast): > 100 µM
TGI (HOP-62 NSCLC): > 100 µM
TGI (UACC-62 melanoma): > 100 µM
TGI (HS 578T breast): 65 µM
TGI (NCI-H226 lung): > 100 µM
TGI (A549 NSCLC): > 100 µM
TGI (MALME-3M melanoma): > 100 µM
TGI (SF-539 CNS): > 100 µM
TGI (SR leukemia): > 100 µM
TGI (HCT-116 colon): > 100 µM
TGI (HT29 colon): > 100 µM
TGI (SK-OV-3 ovarian): > 100 µM
TGI (OVCAR-3 ovarian): > 100 µM
TGI (RPMI-8226 leukemia): > 100 µM
TGI (COLO 205 colon): > 100 µM
TGI (IGROV1 ovarian): > 100 µM
TGI (UACC-257 melanoma): > 100 µM
TGI (ACHN renal): > 100 µM
TGI (EKVX NSCLC): > 100 µM
TGI (MCF7 breast): > 100 µM
TGI (SF-268 CNS): > 100 µM
TGI (U251 CNS): > 100 µM
TGI (HCT-15 colon): > 100 µM
TGI (A498 renal): 94.8 µM
TGI (CCRF-CEM leukemia): > 100 µM
TGI (OVCAR-5 ovarian): > 100 µM
TGI (SW-620 colon): > 100 µM
TGI (NCI-H23 lung): > 100 µM
